From article PMC4402678, “Twins in spirit - episode I: comparative preclinical evaluation of [^68Ga]DOTATATE and [^68Ga]HA-DOTATATE” (EJNMMI Research, 2015)
Where two headings read alike, the source gives them in different places.

Legend:
[1] = Biodistribution in AR42J tumor-bearing nude mice; conditions: mouse, 60 min p.i.
[2] = mouse, in vivo, iv, Biodistribution Lung, Control
hsst5 [3] = biological target: T1, hsst5 (Homo sapiens, UniProt P35346); experiment: Competition binding, hsst5 membrane preparations (Millipore), [125I]SST-28 radioligand; set-up: purchased Millipore (Schwalbach, Germany), ChemiSCREEN membranes; host or cells: CHO cells stably transfected; conditions: CHO cell membranes (Millipore), [Leu8,D-Trp22,[125I]Tyr25]-somatostatin 28 radioligand; IC50 ± SD; read-out: IC50 hsst 5
T1 sequence (P35346 whole entry): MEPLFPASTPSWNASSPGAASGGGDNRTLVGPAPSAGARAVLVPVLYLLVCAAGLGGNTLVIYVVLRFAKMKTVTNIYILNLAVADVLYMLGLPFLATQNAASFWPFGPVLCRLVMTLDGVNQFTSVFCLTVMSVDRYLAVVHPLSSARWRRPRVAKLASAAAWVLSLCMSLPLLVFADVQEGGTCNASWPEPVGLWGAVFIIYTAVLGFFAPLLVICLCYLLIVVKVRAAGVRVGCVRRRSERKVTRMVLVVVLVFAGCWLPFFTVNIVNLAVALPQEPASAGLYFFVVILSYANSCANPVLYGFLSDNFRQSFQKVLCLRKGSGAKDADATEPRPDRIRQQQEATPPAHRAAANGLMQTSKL
Experimental: (§1) Cell membrane preparations of cells expressing the human sst1–5 were obtained from Millipore (Schwalbach, Germany) and PerkinElmer (Rodgau, Germany). Competition binding studies were performed in close analogy to the manufacturer’s protocol. […] To each well, 10 μL of (Leu^8,D-Trp^22,[^125I]Tyr^25)-somatostatin-28 in binding buffer (approx. 100,000 cpm) were added. Then, 5 μg of cell membrane in 80 μL of binding buffer were added per well and incubated for 60 min at RT. The final radioligand concentration in the incubation mixture was 0.42 nM. Membranes were then aspired onto a glass fiber filtermat (Printed Filtermat B, Wallach, Turku, Finland), which had been preconditioned with 0.33% polyethylenimine for 30 min and then washed five times with 300 μL (per well) of wash buffer (50 mM HEPES, 500 mM NaCl, 0.1% BSA, buffered to pH 7.4 using 1 N NaOH), using a Mach II M Harvester 96 (Tomtec CE, Etten-Leur, The Netherlands). Membranes were washed ten times with 150 μL (per well) of wash buffer. The filtermat was then cut into squares containing the membrane from the respective wells, and membrane bound activity was counted in a γ-counter. IC50 values were calculated from bound activity [cpm] using PRISM 6 software (Graph Pad Software, San Diego, CA, USA).
(§2) Data were determined using membrane preparations of CHO cells stably transfected with the respective sst subtype.

hsst3 = biological target: T2, hsst3 (Homo sapiens, UniProt P32745); experiment: Competition binding, hsst3 membrane preparations (Millipore), [125I]SST-28 radioligand; conditions: CHO cell membranes (Millipore), [Leu8,D-Trp22,[125I]Tyr25]-somatostatin 28 radioligand; IC50 ± SD; read-out: IC50 hsst 3
T2 construct: purchased Millipore (Schwalbach, Germany), ChemiSCREEN membranes; host or cells: CHO cells stably transfected
T2 sequence (P32745 whole entry): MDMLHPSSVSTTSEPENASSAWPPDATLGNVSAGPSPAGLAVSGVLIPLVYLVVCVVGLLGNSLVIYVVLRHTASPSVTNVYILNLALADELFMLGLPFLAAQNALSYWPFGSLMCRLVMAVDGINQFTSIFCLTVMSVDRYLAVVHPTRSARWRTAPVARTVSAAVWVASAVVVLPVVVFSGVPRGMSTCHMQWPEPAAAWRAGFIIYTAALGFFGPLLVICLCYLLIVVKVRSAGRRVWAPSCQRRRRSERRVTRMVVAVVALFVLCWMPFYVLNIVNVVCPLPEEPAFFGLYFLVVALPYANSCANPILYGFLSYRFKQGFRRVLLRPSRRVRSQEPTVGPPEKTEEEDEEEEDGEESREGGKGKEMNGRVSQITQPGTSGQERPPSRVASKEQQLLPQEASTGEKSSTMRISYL
Experimental: as §1, §2

hsst1 = biological target: T3, hsst1 (Homo sapiens, UniProt P30872); experiment: Competition binding, hsst1 membrane preparations (Millipore), [125I]SST-28 radioligand; conditions: CHO cell membranes (Millipore), [Leu8,D-Trp22,[125I]Tyr25]-somatostatin 28 radioligand; IC50 ± SD; read-out: IC50 hsst 1
T3 construct: purchased Millipore (Schwalbach, Germany), ChemiSCREEN membranes; host or cells: CHO cells stably transfected
T3 sequence (P30872 whole entry): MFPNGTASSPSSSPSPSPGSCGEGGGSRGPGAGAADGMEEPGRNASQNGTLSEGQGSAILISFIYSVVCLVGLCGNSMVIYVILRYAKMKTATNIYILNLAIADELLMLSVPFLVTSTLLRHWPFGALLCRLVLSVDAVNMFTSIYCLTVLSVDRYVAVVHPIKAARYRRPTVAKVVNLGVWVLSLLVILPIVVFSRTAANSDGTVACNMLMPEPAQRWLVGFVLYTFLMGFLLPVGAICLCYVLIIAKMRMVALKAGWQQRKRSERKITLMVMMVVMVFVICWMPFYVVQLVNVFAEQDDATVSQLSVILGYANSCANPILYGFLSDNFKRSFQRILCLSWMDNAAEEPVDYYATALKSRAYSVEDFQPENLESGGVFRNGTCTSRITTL
Experimental: as §1, §2

[4] = test system: AR42J tumor-bearing nude mice; experiment: Biodistribution in AR42J tumor-bearing nude mice; conditions: 60 min p.i.
sst2 = test system: sst2; set-up: method as in PMID 10774879; conditions: read-out: IC50 (sst2), receptor autoradiography; cited from earlier work
[5] = pH 7.4, log P O/PBS
hsst5 [6] = biological target: T1, hsst5; set-up: method as in PMID 10774879; conditions: read-out: hsst5 affinity, autoradiography assay; cited from earlier work

C[C@@H](O)[C@H](NC(=O)[C@@H]1CSSC[C@H](NC(=O)[C@@H](Cc2ccccc2)NC(=O)CN2CCN(CC(=O)O)CCN(CC(=O)O)CCN(CC(=O)O)CC2)C(=O)N[C@@H](Cc2ccc(O)c(I)c2)C(=O)N[C@H](Cc2c[nH]c3ccccc23)C(=O)N[C@@H](CCCCN)C(=O)N[C@@H]([C@@H](C)O)C(=O)N1)C(=O)O [[^68Ga]HA-DOTATATE, [^68Ga]DOTA-3-iodo-Tyr^3-octreotate, metal not drawn]
tissue uptake at 1 h ([1]; AR42J tumor, intravenous, Biodistribution AR42J tumor, Competition, coinjection of 20 μg/mouse unlabeled TOC, n = 3): 5.6 ± 0.7 %ID/g
tissue uptake at 1 h ([1]; AR42J tumor, iv, 25 pmol/mouse, Biodistribution AR42J tumor, Control, tracer only, n = 5): 33.6 ± 10.9 %ID/g
tissue uptake at 1 h ([1]; adrenals, intravenous, Biodistribution Adrenals, Competition, coinjection of 20 μg/mouse unlabeled TOC, n = 3): 1 ± 0.3 %ID/g
tissue uptake at 1 h ([1]; adrenals, iv, 25 pmol/mouse, Biodistribution Adrenals, Control, tracer only, n = 5): 10.8 ± 3.2 %ID/g
tissue uptake at 1 h ([1]; blood, intravenous, Biodistribution Blood, Competition, coinjection of 20 μg/mouse unlabeled TOC, n = 3): 2.5 ± 0.6 %ID/g
tissue uptake at 1 h ([1]; blood, iv, 25 pmol/mouse, Biodistribution Blood, Control, tracer only, n = 5): 0.7 ± 0.3 %ID/g
tissue uptake at 1 h ([1]; heart, intravenous, Biodistribution Heart, Competition, coinjection of 20 μg/mouse unlabeled TOC, n = 3): 1 ± 0.2 %ID/g
tissue uptake at 1 h ([1]; heart, iv, 25 pmol/mouse, Biodistribution Heart, Control, tracer only, n = 5): 0.5 ± 0.2 %ID/g
tissue uptake at 1 h ([1]; intestine, intravenous, Biodistribution Intestine, Competition, coinjection of 20 μg/mouse unlabeled TOC, n = 3): 0.8 ± 0.04 %ID/g
tissue uptake at 1 h ([1]; intestine, iv, 25 pmol/mouse, Biodistribution Intestine, Control, tracer only, n = 5): 4 ± 0.7 %ID/g
tissue uptake at 1 h ([1]; kidney, intravenous, Biodistribution Kidney, Competition, coinjection of 20 μg/mouse unlabeled TOC, n = 3): 17.1 ± 8.7 %ID/g
tissue uptake at 1 h ([1]; kidney, iv, 25 pmol/mouse, Biodistribution Kidney, Control, tracer only, n = 5): 5.3 ± 1 %ID/g
tissue uptake at 1 h ([1]; liver, intravenous, Biodistribution Liver, Competition, coinjection of 20 μg/mouse unlabeled TOC, n = 3): 1 ± 0.3 %ID/g
tissue uptake at 1 h ([1]; liver, iv, 25 pmol/mouse, Biodistribution Liver, Control, tracer only, n = 5): 1 ± 0.2 %ID/g
tissue uptake at 1 h ([1]; lung, intravenous, Biodistribution Lung, Competition, coinjection of 20 μg/mouse unlabeled TOC, n = 3): 2.5 ± 0.4 %ID/g
tissue uptake at 1 h ([1]; lung, iv, 25 pmol/mouse, Biodistribution Lung, Control, tracer only, n = 5): 13.2 ± 1 %ID/g
tissue uptake at 1 h ([1]; muscle, intravenous, Biodistribution Muscle, Competition, coinjection of 20 μg/mouse unlabeled TOC, n = 3): 0.6 ± 0.4 %ID/g
tissue uptake at 1 h ([1]; muscle, iv, 25 pmol/mouse, Biodistribution Muscle, Control, tracer only, n = 5): 0.2 ± 0.1 %ID/g
tissue uptake at 1 h ([1]; pancreas, intravenous, Biodistribution Pancreas, Competition, coinjection of 20 μg/mouse unlabeled TOC, n = 3): 1.5 ± 0.5 %ID/g
tissue uptake at 1 h ([1]; pancreas, iv, 25 pmol/mouse, Biodistribution Pancreas, Control, tracer only, n = 5): 36.6 ± 4.3 %ID/g
tissue uptake at 1 h ([1]; spleen, intravenous, Biodistribution Spleen, Competition, coinjection of 20 μg/mouse unlabeled TOC, n = 3): 0.7 ± 0.2 %ID/g
tissue uptake at 1 h ([1]; spleen, iv, 25 pmol/mouse, Biodistribution Spleen, Control, tracer only, n = 5): 1.9 ± 0.8 %ID/g
tissue uptake at 1 h ([1]; stomach, intravenous, Biodistribution Stomach, Competition, coinjection of 20 μg/mouse unlabeled TOC, n = 3): 1.9 ± 0.8 %ID/g
tissue uptake at 1 h ([1]; stomach, iv, 25 pmol/mouse, Biodistribution Stomach, Control, tracer only, n = 5): 21.7 ± 4.5 %ID/g

C[C@@H](O)[C@H](NC(=O)[C@@H]1CSSC[C@H](NC(=O)[C@@H](Cc2ccccc2)NC(=O)CN2CCN(CC(=O)O)CCN(CC(=O)O)CCN(CC(=O)O)CC2)C(=O)N[C@@H](Cc2ccc(O)cc2)C(=O)N[C@H](Cc2c[nH]c3ccccc23)C(=O)N[C@@H](CCCCN)C(=O)N[C@@H]([C@@H](C)O)C(=O)N1)C(=O)O [[^68Ga]DOTATATE, [^68Ga]DOTA-Tyr^3-octreotate, metal not drawn]
tissue uptake at 1 h ([1]; in vivo, Biodistribution AR42J tumor, Competition, coinjection of 20 μg/mouse unlabeled TOC, n = 3): 2 ± 0.1 %ID/g
tissue uptake at 1 h ([1]; in vivo, Biodistribution Adrenals, Competition, coinjection of 20 μg/mouse unlabeled TOC, n = 3): 0.4 ± 0.1 %ID/g
tissue uptake at 1 h ([1]; in vivo, Biodistribution Blood, Competition, coinjection of 20 μg/mouse unlabeled TOC, n = 3): 0.4 ± 0.2 %ID/g
tissue uptake at 1 h ([1]; in vivo, Biodistribution Heart, Competition, coinjection of 20 μg/mouse unlabeled TOC, n = 3): 0.2 ± 0.1 %ID/g
tissue uptake at 1 h ([1]; in vivo, Biodistribution Intestine, Competition, coinjection of 20 μg/mouse unlabeled TOC, n = 3): 0.6 ± 0.2 %ID/g
tissue uptake at 1 h ([1]; in vivo, Biodistribution Liver, Competition, coinjection of 20 μg/mouse unlabeled TOC, n = 3): 0.2 ± 0.05 %ID/g
tissue uptake at 1 h ([1]; in vivo, Biodistribution Lung, Competition, coinjection of 20 μg/mouse unlabeled TOC, n = 3): 0.6 ± 0.2 %ID/g
tissue uptake at 1 h ([1]; in vivo, Biodistribution Muscle, Competition, coinjection of 20 μg/mouse unlabeled TOC, n = 3): 0.2 ± 0.1 %ID/g
tissue uptake at 1 h ([1]; in vivo, Biodistribution Spleen, Competition, coinjection of 20 μg/mouse unlabeled TOC, n = 3): 0.2 ± 0.03 %ID/g
tissue uptake at 1 h ([1]; in vivo, Biodistribution Stomach, Competition, coinjection of 20 μg/mouse unlabeled TOC, n = 3): 0.7 ± 0.1 %ID/g
tissue uptake at 1 h ([1]; in vivo, iv, Biodistribution AR42J tumor, Control, tracer only, n = 5): 24.1 ± 4.9 %ID/g
tissue uptake at 1 h ([1]; in vivo, iv, Biodistribution Adrenals, Control, tracer only, n = 5): 5.1 ± 1.4 %ID/g
tissue uptake at 1 h ([1]; in vivo, iv, Biodistribution Blood, Control, tracer only, n = 5): 0.3 ± 0.06 %ID/g
tissue uptake at 1 h ([1]; in vivo, iv, Biodistribution Heart, Control, tracer only, n = 5): 0.3 ± 0.04 %ID/g
tissue uptake at 1 h ([1]; in vivo, iv, Biodistribution Intestine, Control, tracer only, n = 5): 2.7 ± 0.8 %ID/g
tissue uptake at 1 h ([1]; in vivo, iv, Biodistribution Kidney, Control, tracer only, n = 5): 3.9 ± 0.5 %ID/g
tissue uptake at 1 h ([1]; in vivo, iv, Biodistribution Liver, Control, tracer only, n = 5): 0.5 ± 0.1 %ID/g
tissue uptake at 1 h ([1]; in vivo, iv, Biodistribution Muscle, Control, tracer only, n = 5): 0.3 ± 0.2 %ID/g
tissue uptake at 1 h ([1]; in vivo, iv, Biodistribution Pancreas, Control, tracer only, n = 5): 26.1 ± 4.9 %ID/g
tissue uptake at 1 h ([1]; in vivo, iv, Biodistribution Stomach, Control, tracer only, n = 5): 15.9 ± 3.9 %ID/g
tissue uptake at 1 h [2]: 8.4 ± 1.4 %ID/g

C[C@@H](O)[C@H](NC(=O)[C@@H]1CSSC[C@H](NC(=O)[C@@H](Cc2ccccc2)NC(=O)CN2CCN(CC(=O)O)CCN(CC(=O)O)CCN(CC(=O)O)CC2)C(=O)N[C@@H](Cc2ccc(O)c(I)c2)C(=O)N[C@H](Cc2c[nH]c3ccccc23)C(=O)N[C@@H](CCCCN)C(=O)N[C@@H]([C@@H](C)O)C(=O)N1)C(=O)O [^natGa-HA-DOTATATE, metal not drawn]
IC50 (hsst5 [3]): 102 ± 65 nM
IC50 (hsst3): > 1000 nM
IC50 (hsst1): > 1000 nM

C[C@@H](O)[C@H](NC(=O)[C@@H]1CSSC[C@H](NC(=O)[C@@H](Cc2ccccc2)NC(=O)CN2CCN(CC(=O)O)CCN(CC(=O)O)CCN(CC(=O)O)CC2)C(=O)N[C@@H](Cc2ccc(O)c(I)c2)C(=O)N[C@H](Cc2c[nH]c3ccccc23)C(=O)N[C@@H](CCCCN)C(=O)N[C@@H]([C@@H](C)O)C(=O)N1)C(=O)O [[^68Ga]HA-DOTATATE] [[^68Ga]DOTA-3-iodo-Tyr^3-octreotate, metal not drawn]
Uptake in sst-expressing tissues (stomach, adrenals, pancreas, AR42J tumor), factor of increase compared to [^68Ga]DOTATATE [4]: 1.4 to 2

C[C@@H](O)[C@H](NC(=O)[C@@H]1CSSC[C@H](NC(=O)[C@@H](Cc2ccccc2)NC(=O)CN2CCN(CC(=O)O)CCN(CC(=O)O)CCN(CC(=O)O)CC2)C(=O)N[C@@H](Cc2ccc(O)cc2)C(=O)N[C@H](Cc2c[nH]c3ccccc23)C(=O)N[C@@H](CCCCN)C(=O)N[C@@H]([C@@H](C)O)C(=O)N1)C(=O)O [^natGa-DOTATATE, metal not drawn, reference compound]
IC50 (hsst5 [3]): > 1000 nM
IC50 (hsst3): > 1000 nM
logP [5]: -3.69
IC50 (hsst5 [6]): 200 to 500 nM
IC50 (hsst1): > 1000 nM
